Measured values: patent US7833531B2, “Method for treating insulin sensitivity by long-acting GLP-1 receptor mimetibody agonists” (Centocor, Inc., priority 2006, dated 2010)
Entries after “also recorded” stand apart in the source; their conditions may differ.

Legend:
Assay type in all cases: in vivo
[1] = system: DIO mice; experiment: Hyperinsulinemic euglycemic clamp, body weights and plasma parameters in DIO mice after acute treatment; conditions: for Body weight / FFA / Glucose / Glycerol / Insulin: single i.p. injection, mean ± SD; for FFA / Glucose / Glycerol / Insulin: plasma
Experimental: (§1) The effect of acute treatment of CNTO 736 (Table 4, SEQ ID NO:70) on insulin sensitivity and lipid metabolism was evaluated in C57Bl mice maintained on a high fat diet for 10 weeks (DIO mice). […] The effect of chronic treatment of CNTO 736 on insulin sensitivity and lipid metabolism was evaluated in C57Bl mice maintained on a high fat diet for 10 weeks. […] The hyperinsulinemic-euglycemic clamp was performed under Acepromazine (6.25 mg/kg)/Midazolam (6.25 mg/kg)/Fentanyl (0.3125 mg/kg) anaesthesia in the following manner. Mice had free access to high fat food and water until 10 hours prior to the clamp. […] Subsequently, insulin was administered in a primed (4.5 mU) continuous (6.8 mU/h) i.v. infusion for approximately 2 h to attain steady state circulating insulin levels of 4 ng/ml. […] VLDL-TG production was calculated from the slope of the concentration curve and expressed as gmol/kg/min. Turnover rates of glucose (μmol/min/kg) was calculated in basal and hyperinsulinemic conditions as the rate of tracer infusion (dpm/min) divided by the plasma specific activity of 14C-glucose (dpm/μmol). The ratio was corrected for body weight. Endogenous glucose production (EGP) was calculated as the difference between the tracer-derived rate of glucose appearance and the infusion rate of glucose. Glucose disposal was calculated based on the concentration of 14C-glucose normalized to infusion rate of glucose. The statistical significance (p<0.05) in various measures of glucose turnover and VLDL production among groups was tested by analysis of variance.

[2] = system: DIO mice; experiment: VLDL production in DIO mice after acute treatment
Experimental: (§2) The effect of acute treatment of CNTO 736 (Table 4, SEQ ID NO:70) on insulin sensitivity and lipid metabolism was evaluated in C57Bl mice maintained on a high fat diet for 10 weeks (DIO mice). […] The effect of chronic treatment of CNTO 736 on insulin sensitivity and lipid metabolism was evaluated in C57Bl mice maintained on a high fat diet for 10 weeks.
(§3) Blood samples (20 μl) were taken at t=0, 10, 20, 40 and 60 minutes after injection to determine the concentration of plasma triglycerides (TG). VLDL-TG production was calculated from the slope of the concentration curve and expressed as gmol/kg/min. Turnover rates of glucose (μmol/min/kg) was calculated in basal and hyperinsulinemic conditions as the rate of tracer infusion (dpm/min) divided by the plasma specific activity of 14C-glucose (dpm/μmol). The ratio was corrected for body weight. Endogenous glucose production (EGP) was calculated as the difference between the tracer-derived rate of glucose appearance and the infusion rate of glucose. Glucose disposal was calculated based on the concentration of 14C-glucose normalized to infusion rate of glucose. The statistical significance (p<0.05) in various measures of glucose turnover and VLDL production among groups was tested by analysis of variance.

[3] = system: Sprague-Dawley rats; experiment: Intracerebroventricular (icv) dosing in rats: food intake, water intake, body weight; conditions: icv 3 nmols
Excerpt: Sprague-Dawley rats weighing 250-350 g were cannulized into the lateral ventricle at the following coordinates: −0.80 mm anterior, +1.2 mm lateral to bregma, −3.2 mm ventral to bregma. Animals were submitted for Angiotensin II testing to confirm that the cannulas were placed appropriately. Rats were acclimated to a reversed light/dark cycle and to handling. A 24-hour fasted/refed measurement was taken after a single PBS injection in order to establish a feeding baseline. Animals were evenly distributed according to 24-hour food intake from PBS injections (3 groups of 10 animals). Seven-ten days following PBS injection, rats were fasted for 24 hours and were dosed icv prior to entering the dark cycle.

[4] = system: DIO mice; experiment: Hyperinsulinemic euglycemic clamp, body weights and plasma parameters in DIO mice after chronic treatment; conditions: for Body weight / FFA / Glycerol / Insulin / Glucose: daily i.p. injections weeks 7 through 10, mean ± SD; for FFA / Glycerol / Insulin / Glucose: plasma
Experimental: as §1, with “variance. […] Two hours after the last dose, mice were subjected to hyperinsulinemic euglycemic clamp.” for “variance.”

[5] = system: DIO mice; experiment: VLDL production in DIO mice after chronic treatment; conditions: either dose of CNTO 736
Experimental: as §2, §3

[6] = acute, i.p., CNTO 736 1 mg/kg and 0.1 mg/kg, exenatide 7.1 ug/ml, clamp 2 hours post dosing, differences do not reach statistical significance
[7] = acute, CNTO 736 0.1 mgk, Hyperinsulinemic
[8] = acute, CNTO 736 1 mgk, Hyperinsulinemic
[9] = 24 hours fasted rats, first 12 hours following dosing
[10] = second 12 hours following dosing (12-24 hours)
[11] = chronic, CNTO 736 0.1 mgk, Basal
[12] = chronic, CNTO 736 0.1 mgk, Hyperinsulinemic
[13] = chronic, CNTO 736 1 mgk, Hyperinsulinemic

With “CNTO 736: a GLP-1 receptor agonist, a GLP-1 mimetibody construct; sequence in Table 4 (SEQ ID NO:70)” the “glycerol turnover (lipolysis)” value ([1]; acute administration, either dose, basal (fasting) or hyperinsulinemic conditions) was “did not affect glycerol turnover”, the basal glucose production [1, 6] was “tend to decrease the basal glucose production” and the “whole body glucose disposal” value [1, 6] was “increase the whole body glucose disposal”. The Body weight ([1]; acute, CNTO 736 0.1 mgk, Basal) was 31.3 ± 1.6 g, the Body weight [1, 7] was 31.3 ± 1.6 g and the Body weight ([1]; acute, CNTO 736 1 mgk, Basal) was 31.2 ± 2.2 g. The Body weight [1, 8] was 31.2 ± 2.2 g, the FFA ([1]; acute, CNTO 736 0.1 mgk, Basal) was 1.1 ± 0.5 mmol/L and the Glucose ([1]; acute, CNTO 736 0.1 mgk, Basal) was 5.5 ± 1.2 mmol/L. The Glycerol ([1]; acute, CNTO 736 0.1 mgk, Basal) was 0.2 ± 0.1 mmol/L, the Insulin ([1]; acute, CNTO 736 0.1 mgk, Basal) was 1.1 ± 0.8 ng/mL and the FFA [1, 7] was 0.7 ± 0.3 mmol/L. For the same substance, the Glucose [1, 7] was 7.3 ± 0.5 mmol/L, the Glycerol [1, 7] was 0.1 ± 0.1 mmol/L and the Insulin [1, 7] was 3.5 ± 1.3 ng/mL. The FFA ([1]; acute, CNTO 736 1 mgk, Basal) was 1.1 ± 0.5 mmol/L, the Glycerol ([1]; acute, CNTO 736 1 mgk, Basal) was 0.2 ± 0.1 mmol/L and the Insulin ([1]; acute, CNTO 736 1 mgk, Basal) was 0.9 ± 0.6 ng/mL. For the same substance, the FFA [1, 8] was 0.6 ± 0.4 mmol/L, the Glucose [1, 8] was 8.0 ± 0.8 mmol/L and the Glycerol [1, 8] was 0.1 ± 0.1 mmol/L. For the same substance, the Insulin [1, 8] was 4.5 ± 1.7 ng/mL, the “basal or hyperinsulinemic rate of VLDL production” value [2] was “did not change” and the food intake [3, 9] was “significant reduction”. For the same substance, the water intake [3, 9] was “significant reduction”, the food intake [3, 10] was “significant reduction in food intake” and the water intake [3, 10] was “observed only with exendin-4 treatment”. The “glycerol turnover (lipolysis)” value ([4]; chronic administration, either dose, basal (fasting) or hyperinsulinemic conditions) was “did not affect glycerol turnover”, the “insulin action / peripheral insulin sensitivity” value ([4]; chronic dosing, mice with diet-induced obesity) was “improve insulin action; also recorded: significantly improves peripheral insulin sensitivity” and the Body weight [4, 11] was 26.1 ± 1.9 g. For the same substance, the Body weight [4, 12] was 26.1 ± 1.9 g, the Body weight [4, 13] was 25.1 ± 1.3 g and the “gluconeogenesis in the fasting state (de novo glucose production)” value ([4]; chronic, i.p. daily for 4 weeks) was “significantly decreased gluconeogenesis; also recorded: inhibits hepatic gluconeogenesis”. The “basal hepatic glucose production” value ([4]; chronic, i.p. daily for 4 weeks, both doses of CNTO 736 (1 or 0.1 mg/kg), exendin-4 7.1 μg/kg) was “significantly decreased”, the “insulin-inhibition of hepatic glucose production” value ([4]; chronic, i.p. daily for 4 weeks, both doses of CNTO 736, exendin-4 7.1 μg/kg) was “increased insulin-inhibition of hepatic glucose production” and the “whole body glucose disposal in the hyperinsulinemic state” value ([4]; chronic, i.p. daily for 4 weeks, high dose of CNTO 736 (1 mg/kg), exendin-4 7.1 μg/kg) was “significantly increased”. The “gluconeogenesis in the fasting state (de novo glucose production)” value ([4]; chronic, i.p. daily for 4 weeks, listed as CNT0736) was “inhibited de novo glucose production”, the FFA [4, 11] was 1.1 ± 0.3 mmol/L and the Glycerol [4, 11] was 0.2 ± 0.0 mmol/L. It also gave an Insulin [4, 11] of 1.1 ± 0.6 ng/mL, an FFA [4, 12] of 0.5 ± 0.1 mmol/L and a Glucose [4, 12] of 7.6 ± 1.1 mmol/L. The Glycerol [4, 12] was 0.1 ± 0.1 mmol/L, the Insulin [4, 12] was 4.6 ± 1.0 ng/mL and the FFA ([4]; chronic, CNTO 736 1 mgk, Basal) was 1.1 ± 0.2 mmol/L. The Glycerol ([4]; chronic, CNTO 736 1 mgk, Basal) was 0.2 ± 0.1 mmol/L, the Insulin ([4]; chronic, CNTO 736 1 mgk, Basal) was 1.4 ± 1.3 ng/mL and the FFA [4, 13] was 0.4 ± 0.1 mmol/L. It also gave a Glucose [4, 13] of 7.6 ± 0.9 mmol/L, a Glycerol [4, 13] of 0.1 ± 0.1 mmol/L and an Insulin [4, 13] of 5.0 ± 1.9 ng/mL. The “basal and hyperinsulinemic rate of VLDL production” value [5] was “significantly decreased; also recorded: decreases VLDL production”.
